From US20210038607A1, “OXADIAZOLYLTHIOPHENE DERIVATIVES USEFUL AS HISTONE DEACETYLASE INHIBITORS” (Karus Therapeutics Limited, priority 2018, published 2021)

Tests used:
[1] = molecular target: T1, Complex of human HDAC3 and human NCOR2 (Homo sapiens, UniProt O15379); assay: HDAC3 biochemical assay, AMC-labeled peptide substrate; conditions: read-out: HDAC Isoform IC50 (nM) 3
T1 construct: full length with C-terminal His tag, MW=49.7 kDa; His (C); host or cells: baculovirus expression system (co-expressed)
T1 sequence (O15379 whole entry, canonical isoform): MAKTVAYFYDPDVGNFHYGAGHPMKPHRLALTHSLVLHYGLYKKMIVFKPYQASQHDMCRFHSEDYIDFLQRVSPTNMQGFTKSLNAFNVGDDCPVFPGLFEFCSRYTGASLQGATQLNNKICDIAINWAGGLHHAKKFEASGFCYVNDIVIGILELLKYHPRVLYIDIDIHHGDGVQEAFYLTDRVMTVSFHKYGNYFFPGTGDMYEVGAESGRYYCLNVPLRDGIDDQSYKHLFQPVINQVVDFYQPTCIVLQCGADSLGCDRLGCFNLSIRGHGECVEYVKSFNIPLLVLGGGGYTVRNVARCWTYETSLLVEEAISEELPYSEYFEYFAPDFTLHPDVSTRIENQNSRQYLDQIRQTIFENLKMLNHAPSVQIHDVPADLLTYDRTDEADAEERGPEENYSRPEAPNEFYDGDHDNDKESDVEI
T1 sequence (Q9Y618 395-489 partner limits assumed): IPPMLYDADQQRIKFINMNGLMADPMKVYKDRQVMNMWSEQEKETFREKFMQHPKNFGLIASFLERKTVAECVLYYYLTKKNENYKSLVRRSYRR
Procedure: (§1) Activity against all zinc-dependent HDACs 1 to 11 was assessed by using an acetylated AMC-labeled peptide substrate. The substrate RHKK(Ac)AMC was used for HDAC1, HDAC2, HDAC3, HDAC6 and HDAC10; the substrate used for HDAC8 was RHK(Ac)K(Ac)AMC. Activity against the class IIa HDACs (HDAC4, 5, 7, 9) and HDAC11 was determined using a class IIa-specific substrate, BOC-Lys(trifluoroacetyl)-AMC (“Trifluoroacetyl Lysine”; see Lahm et al, 2007, PNAS, 104, 17335-17340). All assays were based on the AMC-labeled substrate and developer combination.
(§2) The protocol involved a two-step reaction: first, the substrate with the acetylated lysine side chain is incubated with a sample containing HDAC activity, to produce the deacetylated products, which are then digested in the second step by the addition of developer to produce the fluorescent signal proportional to the amount of deacetylated substrates.
Complex of human HDAC3 (GenBank Accession No. NM_003883), full length with C-terminal His tag, MW=49.7 kDa, and human NCOR2 (amino acid 395-489) (GenBank Accession No. NM_006312), N-terminal GST tag, MW=37.6 kDa, co-expressed in baculovirus expression system.
(§3) Assay Buffer: 50 mM Tris-HCl, pH8.0, 137 mM NaCl, 2.7 mM KCl, 1 mM MgC2. Before use, 1 mg/mL BSA and DMSO are added.
HDAC3: 0.1 ng/ul HDAC3 and 50 μM HDAC substrate are in the reaction buffer with 1% DMSO final. Incubate for 1 hour at 30° C.
(§4) Stage 1: Deacetylation of substrate by incubation of HDAC enzymes with compounds
(§5) Stage 2: Development by addition of Developer to digest the deacetylated substrate, and generate the fluorescent colour; Detection: 360/460 Ex/Em

Human HDAC2 = molecular target: T2, Human HDAC2 (Homo sapiens, UniProt Q92769); assay: HDAC2 biochemical assay, AMC-labeled peptide substrate; conditions: read-out: HDAC Isoform IC50 (nM) 2
T2 construct: full length with C-terminal GST-tag; GST (C); host or cells: baculovirus expression system
T2 sequence (Q92769 whole entry, canonical isoform): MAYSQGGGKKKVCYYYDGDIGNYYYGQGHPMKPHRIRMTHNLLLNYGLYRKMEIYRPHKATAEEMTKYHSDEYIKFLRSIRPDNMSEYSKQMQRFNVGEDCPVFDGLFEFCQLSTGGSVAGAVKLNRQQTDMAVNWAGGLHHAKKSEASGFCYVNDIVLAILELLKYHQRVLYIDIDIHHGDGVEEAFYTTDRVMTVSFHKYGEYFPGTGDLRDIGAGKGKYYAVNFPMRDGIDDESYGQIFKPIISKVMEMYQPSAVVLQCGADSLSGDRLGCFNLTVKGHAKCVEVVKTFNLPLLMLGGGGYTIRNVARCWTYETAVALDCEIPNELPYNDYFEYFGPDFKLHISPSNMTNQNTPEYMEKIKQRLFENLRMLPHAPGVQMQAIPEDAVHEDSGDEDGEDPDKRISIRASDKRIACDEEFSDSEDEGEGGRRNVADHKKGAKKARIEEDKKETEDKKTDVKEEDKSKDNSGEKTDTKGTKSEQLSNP
Procedure: as §1, §2
Human HDAC2 (GenBank Accession No. NM_001527), full length with C-terminal GST-tag, MW=82.9 kDa, expressed inbaculovirus expression system.
as §3
HDAC2: 0.07 ng/ul HDAC2 and 50 μM HDAC substrate are in the reaction buffer with 1% DMSO final. Incubate for 1 hour at 30° C.
as §4, §5

Human HDAC1 = molecular target: T3, Human HDAC1 (Homo sapiens, UniProt Q13547); assay: HDAC1 biochemical assay, AMC-labeled peptide substrate; conditions: read-out: HDAC Isoform IC50 (nM) 1
T3 construct: full length with C-terminal His-tag and C-terminal FLAG-tag; His (C); FLAG (C); host or cells: baculovirus expression system
T3 sequence (Q13547 whole entry, canonical isoform): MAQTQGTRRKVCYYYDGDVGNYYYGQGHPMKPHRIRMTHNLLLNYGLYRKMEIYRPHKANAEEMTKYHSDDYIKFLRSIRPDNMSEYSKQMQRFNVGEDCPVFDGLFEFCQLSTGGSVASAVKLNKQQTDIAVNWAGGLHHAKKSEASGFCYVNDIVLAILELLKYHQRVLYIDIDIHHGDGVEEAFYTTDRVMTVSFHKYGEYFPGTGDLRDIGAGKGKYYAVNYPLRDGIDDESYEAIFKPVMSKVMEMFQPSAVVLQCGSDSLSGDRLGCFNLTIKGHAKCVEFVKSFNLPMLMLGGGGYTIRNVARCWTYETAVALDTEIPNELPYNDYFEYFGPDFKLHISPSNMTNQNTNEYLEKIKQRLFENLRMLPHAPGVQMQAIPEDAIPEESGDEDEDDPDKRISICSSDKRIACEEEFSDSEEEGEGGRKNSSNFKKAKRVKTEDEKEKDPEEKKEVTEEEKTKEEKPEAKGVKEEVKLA
Method in brief: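 Baculovirus-expressed full-length human HDAC1 with His and FLAG tags, 0.3 ng/ul, incubated 1 h at 30° C with compound and 50 μM RHKK(Ac)AMC in Tris pH 8.0 buffer with BSA and 1% DMSO. Developer then releases AMC from deacetylated substrate; fluorescence read at 360/460 nm.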

Human HDAC10 = molecular target: T4, Human HDAC10 (Homo sapiens, UniProt Q969S8); assay: HDAC10 biochemical assay, AMC-labeled peptide substrate; conditions: read-out: HDAC Isoform IC50 (nM) 10
T4 construct: Human HDAC10 (a.a. 1-481); GST (N); His (C); host or cells: baculovirus expression system
T4 sequence (Q969S8 1-481): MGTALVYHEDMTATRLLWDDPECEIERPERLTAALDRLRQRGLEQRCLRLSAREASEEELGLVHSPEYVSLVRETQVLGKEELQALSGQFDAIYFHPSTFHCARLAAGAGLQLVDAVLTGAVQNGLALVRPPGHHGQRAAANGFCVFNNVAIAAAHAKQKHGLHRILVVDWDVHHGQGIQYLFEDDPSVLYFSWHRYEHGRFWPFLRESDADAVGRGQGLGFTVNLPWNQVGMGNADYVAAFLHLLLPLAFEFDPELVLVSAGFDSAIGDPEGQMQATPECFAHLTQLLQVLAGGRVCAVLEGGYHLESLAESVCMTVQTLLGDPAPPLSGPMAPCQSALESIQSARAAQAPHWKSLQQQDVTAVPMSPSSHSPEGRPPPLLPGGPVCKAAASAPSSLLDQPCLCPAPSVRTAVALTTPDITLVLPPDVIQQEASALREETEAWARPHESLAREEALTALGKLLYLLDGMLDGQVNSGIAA
Procedure: as §1, §2
Human HDAC10 (a.a. 1-481), GenBank Accession No. NM_032019 with N-terminal GST tag and C-terminal His tag, MW=78 kDa, expressed in baculovirus expression system.
as §3
HDAC10: 12 ng/ul HDAC10 and 50 μM HDAC substrate are in the reaction buffer with 1% DMSO final. Incubate for 2 hours at 30° C.
as §4, §5

Human HDAC5 = molecular target: T5, Human HDAC5 (Homo sapiens, UniProt Q9UQL6); assay: HDAC5 biochemical assay, class IIa-specific substrate; conditions: read-out: HDAC Isoform IC50 (nM) 5
T5 construct: full length with C-terminal His tag, MW=51.1 kDa; His (C); host or cells: baculovirus expression system
T5 sequence (Q9UQL6 656-1122 limits assumed): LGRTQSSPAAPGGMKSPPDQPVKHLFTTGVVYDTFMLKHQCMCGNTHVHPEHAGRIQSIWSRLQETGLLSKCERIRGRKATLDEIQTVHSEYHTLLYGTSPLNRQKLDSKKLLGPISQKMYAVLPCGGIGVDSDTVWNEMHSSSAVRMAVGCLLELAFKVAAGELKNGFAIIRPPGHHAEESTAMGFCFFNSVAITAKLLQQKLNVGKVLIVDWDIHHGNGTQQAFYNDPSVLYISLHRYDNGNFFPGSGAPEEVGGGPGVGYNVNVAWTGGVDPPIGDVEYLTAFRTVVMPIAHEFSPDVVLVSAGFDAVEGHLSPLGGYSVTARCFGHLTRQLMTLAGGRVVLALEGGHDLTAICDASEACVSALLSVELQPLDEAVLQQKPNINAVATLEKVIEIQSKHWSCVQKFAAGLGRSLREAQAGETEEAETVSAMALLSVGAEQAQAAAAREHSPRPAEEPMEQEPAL
Method in brief: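 Full-length C-terminal His-tagged HDAC5 from baculovirus (0.05 ng/ul) incubated 30 min at room temperature with 50 μM Boc-Lys(trifluoroacetyl)-AMC and compound, Tris pH 8.0 buffer with BSA, 1% DMSO. Developer then releases AMC; fluorescence 360/460 nm.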

IC50 [1] [nM] | IC50 (Human HDAC2) [nM] | IC50 (Human HDAC1) [nM] | IC50 (Human HDAC10) [nM] | IC50 (Human HDAC5) [nM] | Compound
> 10000 | > 10000 | > 10000 | > 10000 | ≤ 1000 | FC(F)(F)c1nc(-c2ccc(CN(c3cnccn3)c3cnccn3)s2)no1 [Example BA, N-(Pyrazin-2-yl)-N-({5-[5-(trifluoromethyl)-1,2,4-oxadiazol-3-yl]thiophen-2-yl}methyl)pyrazin-2-amine]
≤ 10000 | > 10000 | ≤ 10000 | > 10000 | ≤ 500 | O=C(c1ccc(N(Cc2ccc(-c3noc(C(F)(F)F)n3)s2)c2cnccn2)nn1)N1CCC1 [Example FF, 6-(Azetidine-1-carbonyl)-N-(pyrazin-2-yl)-N-({5-[5-(trifluoromethyl)-1,2,4-oxadiazol-3-yl]thiophen-2-yl}methyl)pyridazin-3-amine]
> 10000 | > 10000 | > 10000 | > 10000 | ≤ 1000 | O=C(c1cnnc(N(Cc2ccc(-c3noc(C(F)(F)F)n3)s2)c2cnccn2)c1)N1CC2CCC(C1)O2 [Example GA, 5-{8-Oxa-3-azabicyclo[3.2.1]octane-3-carbonyl}-N-(pyrazin-2-yl)-N-({5-[5-(trifluoromethyl)-1,2,4-oxadiazol-3-yl]thiophen-2-yl}methyl)pyridazin-3-amine]
> 10000 | > 10000 | > 10000 | > 10000 | ≤ 1000 | FC(F)(F)c1nc(-c2ccc(CN(c3cnccn3)c3cc(N4CCCC4)cnn3)s2)no1 [Example FQ, N-(Pyrazin-2-yl)-5-(pyrrolidin-1-yl)-N-({5-[5-(trifluoromethyl)-1,2,4-oxadiazol-3-yl]thiophen-2-yl}methyl)pyridazin-3-amine]
> 10000 | > 10000 | > 10000 | > 10000 | ≤ 500 | Cc1cncc(N(Cc2ccc(-c3noc(C(F)(F)F)n3)s2)c2cnccn2)n1 [Example BP, 6-Methyl-N-(pyrazin-2-yl)-N-({5-[5-(trifluoromethyl)-1,2,4-oxadiazol-3-yl]thiophen-2-yl}methyl)pyrazin-2-amine]
> 10000 | > 10000 | > 10000 | > 10000 | ≤ 1000 | O=C(c1cnnc(N(Cc2ccc(-c3noc(C(F)(F)F)n3)s2)c2cnccn2)c1)N1CCC(F)(F)CC1 [Example FY, 5-(4,4-Difluoropiperidine-1-carbonyl)-N-(pyrazin-2-yl)-N-({5-[5-(trifluoromethyl)-1,2,4-oxadiazol-3-yl]thiophen-2-yl}methyl)pyridazin-3-amine]
> 10000 | > 10000 | > 10000 | > 10000 | ≤ 1000 | O=C(c1cnnc(N(Cc2ccc(-c3noc(C(F)(F)F)n3)s2)c2cnccn2)c1)N1CCC1 [Example FS, 5-(Azetidine-1-carbonyl)-N-(pyrazin-2-yl)-N-({5-[5-(trifluoromethyl)-1,2,4-oxadiazol-3-yl]thiophen-2-yl}methyl)pyridazin-3-amine]
> 10000 | > 10000 | > 10000 | > 10000 | ≤ 10000 | O=C(O)c1cnnc(N(Cc2ccc(-c3noc(C(F)(F)F)n3)s2)c2cnccn2)c1 [Example DW, 6-[(Pyrazin-2-yl)({5-[5-(trifluoromethyl)-1,2,4-oxadiazol-3-yl]thiophen-2-yl}methyl)amino]pyridazine-4-carboxylic acid]
≤ 10000 | > 10000 | ≤ 10000 | > 10000 | ≤ 500 | NC(=O)c1ccc(N(Cc2ccc(-c3noc(C(F)(F)F)n3)s2)c2cnccn2)nn1 [Example DQ, 6-[(Pyrazin-2-yl)({5-[5-(trifluoromethyl)-1,2,4-oxadiazol-3-yl]thiophen-2-yl}methyl)amino]pyridazine-3-carboxamide]
> 10000 | > 10000 | > 10000 | > 10000 | ≤ 1000 | O=C(c1cnnc(N(Cc2ccc(-c3noc(C(F)(F)F)n3)s2)c2cnccn2)c1)N1CC2(COC2)C1 [Example FZ, 5-{2-Oxa-6-azaspiro[3.3]heptane-6-carbonyl}-N-(pyrazin-2-yl)-N-({5-[5-(trifluoromethyl)-1,2,4-oxadiazol-3-yl]thiophen-2-yl}methyl)pyridazin-3-amine]
> 10000 | > 10000 | > 10000 | > 10000 | ≤ 10000 | CC(F)(F)c1cnnc(N(Cc2ccc(-c3noc(C(F)(F)F)n3)s2)c2cnccn2)c1 [Example GU, 5-(1,1-Difluoroethyl)-N-(pyrazin-2-yl)-N-({5-[5-(trifluoromethyl)-1,2,4-oxadiazol-3-yl]thiophen-2-yl}methyl)pyridazin-3-amine]
≤ 10000 | > 10000 | ≤ 10000 | > 10000 | ≤ 500 | O=C(c1ccc(N(Cc2ccc(-c3noc(C(F)(F)F)n3)s2)c2cnccn2)nn1)N1CC[S+]([O-])CC1 [Example FD, 4-{6-[(Pyrazin-2-yl)({5-[5-(trifluoromethyl)-1,2,4-oxadiazol-3-yl]thiophen-2-yl}methyl)amino]pyridazine-3-carbonyl}-1lambda4-thiomorpholin-1-one]
> 10000 | > 10000 | > 10000 | > 10000 | ≤ 1000 | FC(F)(F)c1nc(-c2ccc(CN(c3cnccn3)c3cc(CN4CCCC4)ccn3)s2)no1 [Example GG, N-{4-[(Pyrrolidin-1-yl)methyl]pyridin-2-yl}-N-({5-[5-(trifluoromethyl)-1,2,4-oxadiazol-3-yl]thiophen-2-yl}methyl)pyrazin-2-amine]
≤ 10000 | > 10000 | ≤ 10000 | > 10000 | ≤ 500 | O=C(c1ccc(N(Cc2ccc(-c3noc(C(F)(F)F)n3)s2)c2cnccn2)nn1)N1CCC12COC2 [Example FH, 6-{6-Oxa-1-azaspiro[3.3]heptane-1-carbonyl}-N-(pyrazin-2-yl)-N-({5-[5-(trifluoromethyl)-1,2,4-oxadiazol-3-yl]thiophen-2-yl}methyl)pyridazin-3-amine]
> 10000 | > 10000 | > 10000 | > 10000 | ≤ 1000 | O=C(c1cnnc(N(Cc2ccc(-c3noc(C(F)(F)F)n3)s2)c2cnccn2)c1)N1CCOCC1 [Example EB, 5-(Morpholine-4-carbonyl)-N-(pyrazin-2-yl)-N-({5-[5-(trifluoromethyl)-1,2,4-oxadiazol-3-yl]thiophen-2-yl}methyl)pyridazin-3-amine]
